How the values were obtained:
Type in all cases: in vivo, human
IL-6 = assay: Randomized clinical trial in CPB patients: IL-6 level by ELISA
Procedure: (§1) A randomized prospective clinical trial was performed. Thirty-four consecutive patients with an ejection fraction >30%, undergoing elective coronary artery bypass grafting were randomized into four groups. Groups A and B received taurolidine (250 mL 2% taurolidine) intravenously at induction through a central line. These patients also received two further doses of taurolidine at 12 hour intervals (2×250 mL 2% taurolidine/day) for the first 24 hours following surgery, but in group A crystalloid cardioplegia was used for myocardial protection and in group B blood cardioplegia was used. Groups C and D received saline vehicle controls while group C had crystalloid cardioplegia and group D received blood cardioplegia. Blood samples were taken pre-operatively, at the time of aortic unclamping, 2 hours, 6 hours and 24 hours post aortic unclamping. Neutrophil and monocyte respiratory burst, phagocytosis ability, CD11b and CD14 expression were assessed using flow cytometry. Plasma interleukins 6, 8 and 10 (IL-6, IL-8 and IL-10) and tumor necrosis factor α (TNF-α) were determined by Enzyme Linked Immuno Sorbent Assay. All the patients received the standard antibiotic prophylaxis for cardiac bypass surgery.
(§2) Patient selection was performed as follows. Patients undergoing elective coronary artery bypass grafting with an ejection fraction greater than or equal to 30%, no history of Diabetes mellitis and a normal chest x-ray were selected. Patients on ACE-inhibitors were not included in the study. The decision was made jointly by the consultant anesthetist and surgeon involved before inclusion in the study, and each patient was then randomized to drug or control. All the patients were nursed in the cardiac intensive care unit post operatively. Informed consent was sought from each patient before inclusion into the study.
(§3) Parameters 2-4 were assessed post aortic unclamping, 2 hours and 24 hours post-operatively.
(§4) Thirty-four patients were studied as described above.

TNF-α = assay: Randomized clinical trial in CPB patients: circulating TNF-α by ELISA; conditions: perioperative taurolidine
Procedure: as §1
(§5) Patient selection was performed as follows. […]
as §3

[1] = tested on: neutrophil and monocyte activity (respiratory burst, phagocytosis, CD11b, CD14); assay: Randomized clinical trial in CPB patients: neutrophil and monocyte activity by flow cytometry; conditions: perioperative taurolidine
Procedure: as §1, §5, §3

[2] = tested on: arrhythmia in CPB patients; assay: Arrhythmia in CPB patients during crystalloid cardioplegia; conditions: of ten patients; crystalloid cardioplegia with taurolidine 2% solution (placebo: 8 of ten)
Text: Ten patients underwent CPB using crystalloid cardioplegia with taurolidine 2% solution for myocardial protection. Another ten patients underwent CPB using crystalloid cardioplegia and a placebo for myocardial protection. Three of the patients treated with taurolidine experienced arrhythmia whereas 8 of the patients treated with placebo experienced arrhythmia.

IL-10 = assay: Randomized clinical trial in CPB patients: IL-10 level by ELISA
Procedure: as §1, §2, §3, §4

IL-8 = assay: Randomized clinical trial in CPB patients: circulating IL-8 by ELISA; conditions: perioperative taurolidine
Procedure: as §1, §5, §3

[3] = 24 hours post aortic unclamping, crystalloid cardioplegia (Group A, n = 8), 250 mL 2% taurolidine i.v., mean ± s.d., *p < 0.05 vs. placebo
[4] = Group A vs. Group B, p<0.05 at 24 hours post aortic unclamping
[5] = crystalloid cardioplegia, Group A vs. Group C, 24 hour timepoint

O=S1(=O)CCN(CN2CCS(=O)(=O)NC2)CN1 [Taurolidine, bis(1,1-dioxoperhydro-1,2,4-thiadiazin-4-yl)methane]
Serum IL-6 level (IL-6; [3]): 8.0 ± 1.4* pg/mL
Interleukin-6, crystalloid vs. blood cardioplegia in taurolidine patients (IL-6; [4]): significantly down-regulated
Effect on interleukin-6 in combination with blood cardioplegia (IL-6; blood cardioplegia, Group B vs. Group D): No beneficial effect
Interleukin-6 vs. placebo (in words) (IL-6; [5]): significantly down-regulated
Effect on circulating TNF-α (TNF-α): did not appear to modify
Effect on neutrophil or monocyte activity [1]: did not appear to modify
Number of patients who experienced arrhythmia [2]: Three
Serum IL-10 level (IL-10; [3]): 28.2 ± 9.6* pg/mL
Interleukin-10, crystalloid vs. blood cardioplegia in taurolidine patients (IL-10; [4]): significantly up-regulated
Interleukin-10 vs. placebo (in words) (IL-10; [5]): significantly up-regulated
Effect on circulating IL-8 (IL-8): did not appear to modify
